What all share (format): cell-based, human
One experiment has as its system PC-3 cells. Nature of the experiment: Anti-proliferative toxicity against prostate cancer cell line PC-3 (CCK8). The following applies: Homo sapiens, 72 h, 3 days. The procedure:
(§1) Example 82: Detection of Anti-Proliferative Toxicity Against Prostate Cancer Cell Lines Vcap, 22Rv1, and PC-3
PC-3 cells (purchased from the Cell Bank of the Chinese Academy of Sciences, Cat. No. SCSP-532) were subcultured in a culture medium (F12K medium+1% penicillin-streptomycin dual-antibiotic solution+10% fetal bovine serum) in an incubator at 5% carbon dioxide and 37° C.
PC-3 cells were seeded at 4000 cells/well (90 μL) on a 96-well plate and cultured for 24 h.
(§2) 10 mM compound stock solutions were prepared in DMSO.
(§3) For 22Rv1 cells and PC-3 cells, the compound stock solution was diluted with DMSO to give DMSO solutions 11-19 at concentrations of 0 μM, 500 μM, 100 μM, 20 μM, 4 μM, 0.8 μM, 0.16 μM, 0.032 μM, 0.0064 μM.
For PC-3 cells, 2 μL of each of the above solutions 11-19 was added to 98 μL of PC-3 medium to give mixed solutions 39-47 of the compound and the medium.
(§4) For 22Rv1 and PC-3 cells, 10 μL of each of the above solutions 30-38 or 39-47 was added to the above cell seed solution to give a total volume of 100 μL (90 μL+10 μL), where the concentrations of the compound in wells were 0 μM, 1.0 μM, 0.2 μM, 0.04 μM, 0.008 μM, 0.0016 μM, 0.00032 μM, 0.00006 μM, and 0.00001 μM. All concentrations were in triplicate.
(§5) After the above-treated cells were cultured for 3 days, 10 μL of the CCK8 solution (DOJINDO, Cat. No. PF725) was added to each well. The plate was incubated in an incubator at 37° C. for 1-4 h and then detected on a microplate reader for the reading at 450 nm.

For another experiment, the system named is VCaP cells. Nature of the experiment: Anti-proliferative toxicity against prostate cancer cell line Vcap (CCK8). To be noted: Homo sapiens, 72 h, 3 days, CCK8. The procedure: as §1
(§6) Vcap cells (purchased from the Cell Bank of the Chinese Academy of Sciences, Cat. No. SCSP-5034) were subcultured in a culture medium (DMEM medium+1% penicillin-streptomycin dual-antibiotic solution+10% fetal bovine serum) in an incubator at 5% carbon dioxide and 37° C. 22Rv1 cells (purchased from the Cell Bank of the Chinese Academy of Sciences, Cat. No. TCHu100) were subcultured in a culture medium (RPMI-1640 medium+1% penicillin-streptomycin dual-antibiotic solution+10% fetal bovine serum) in an incubator at 5% carbon dioxide and 37° C.
VCap cells were seeded at 20000 cells/well (90 μL) on a 96-well plate and cultured for 72 h. The original medium was removed, and a new medium of 90 μL was added.
as §2
For VCap cells, the compound stock solution was diluted with DMSO to give DMSO solutions 1-10 at concentrations of 0 μM, 80 μM, 16 μM, 3.2 μM, 1.5 μM, 0.5 μM, 0.15 μM, 0.05 μM, 0.025 μM, and 0.0005 μM.
For Vcap cells, 2 μL of each of the above solutions 1-10 was added to 98 μL of Vcap medium to give mixed solutions 20-29 of the compound and the medium.
For Vcap cells, 10 μL of each of the above solutions 20-29 was added to the above cell seed solution to give a total volume of 100 μL (90 μL+10 μL), where the concentrations of the compound in wells were 0 μM, 0.16 μM, 0.032 μM, 0.006 μM, 0.003 μM, 0.001 μM, 0.0003 μM, 0.0001 μM, 0.00005 μM, and 0.00001 μM. All concentrations were in triplicate.
as §5

The subject of the next experiment is 22Rv1 cells. Nature of the experiment: Anti-proliferative toxicity against prostate cancer cell line 22Rv1 (CCK8). The following applies: Homo sapiens, 72 h, 3 days, CCK8. The procedure:
as §1, §6
22Rv1 cells were seeded at 5000 cells/well (90 μL) on a 96-well plate and cultured for 48 h.
as §2, §3
For 22Rv1 cells, 2 μL of each of the above solutions 11-19 was added to 98 μL of 22Rv1 medium to give mixed solutions 30-38 of the compound and the medium.
as §4, §5

What is called IC50 is the concentration that inhibits the measured activity by half. A lower IC50 goes with greater potency.

Take `C[C@]12C=CC(=O)N[C@@H]1CC[C@@H]1[C@@H]2CC[C@]2(C)[C@@H](C(=O)NCCNc3cccc4c3C(=O)N(C3CCC(=O)NC3=O)C4=O)CC[C@@H]12` (stereo partly drawn) [C1, N-(2-((4-(2-(3-(2,6-dioxopiperidine))-isoindole-1,3-dione))amino)ethyl)-3-oxo-4-aza-5α-androst-1-ene-17β-carboxamide]: the IC50 in the experiment on PC-3 cells, in the experiment on VCaP cells and in the experiment on 22Rv1 cells was greater than 1000 nM in each case.

As for `C[C@]12C=CC(=O)N[C@@H]1CC[C@@H]1[C@@H]2CC[C@]2(C)[C@@H](C(=O)NCCNc3ccc4c(c3)C(=O)N(C3CCC(=O)NC3=O)C4=O)CC[C@@H]12` (stereo partly drawn) [C2, N-(2-((5-(2-(3-(2,6-dioxopiperidine))-isoindole-1,3-dione))amino)ethyl)-3-oxo-4-aza-5α-androst-1-ene-17β-carboxamide], the IC50 with PC-3 cells, in the experiment with VCaP cells and in the experiment on 22Rv1 cells was greater than 1000 nM in each case.

Regarding `C[C@]12C=CC(=O)N[C@@H]1CC[C@@H]1[C@@H]2CC[C@]2(C)[C@@H](C(=O)NCCCNc3cccc4c3C(=O)N(C3CCC(=O)NC3=O)C4=O)CC[C@@H]12` (stereo partly drawn) [C3, N-(3-((4-(2-(3-(2,6-dioxopiperidine))-isoindole-1,3-dione))amino)propyl)-3-oxo-4-aza-5α-androst-1-ene-17β-carboxamide], the IC50 in the experiment on PC-3 cells, in the experiment with VCaP cells and with 22Rv1 cells was greater than 1000 nM throughout.

As to `C[C@]12C=CC(=O)N[C@@H]1CC[C@@H]1[C@@H]2CC[C@]2(C)[C@@H](C(=O)NCCCNc3ccc4c(c3)C(=O)N(C3CCC(=O)NC3=O)C4=O)CC[C@@H]12` (stereo partly drawn) [C4, N-(3-((5-(2-(3-(2,6-dioxopiperidine))-isoindole-1,3-dione))amino)propyl)-3-oxo-4-aza-5α-androst-1-ene-17β-carboxamide], the IC50 in the experiment with PC-3 cells, in the experiment on VCaP cells and in the experiment on 22Rv1 cells was greater than 1000 nM each time.

On to `C[C@]12C=CC(=O)N[C@@H]1CC[C@@H]1[C@@H]2CC[C@]2(C)[C@@H](C(=O)NCCCCNc3cccc4c3C(=O)N(C3CCC(=O)NC3=O)C4=O)CC[C@@H]12` (stereo partly drawn) [C5, N-(4-((4-(2-(3-(2,6-dioxopiperidine))-isoindole-1,3-dione))amino)butyl)-3-oxo-4-aza-5α-androst-1-ene-17β-carboxamide], for which the IC50 in the experiment with PC-3 cells, with VCaP cells and in the experiment with 22Rv1 cells was greater than 1000 nM throughout.

For the compound `C[C@]12C=CC(=O)N[C@@H]1CC[C@@H]1[C@@H]2CC[C@]2(C)[C@@H](C(=O)NCCCCNc3ccc4c(c3)C(=O)N(C3CCC(=O)NC3=O)C4=O)CC[C@@H]12` (stereo partly drawn) [C6, N-(4-((5-(2-(3-(2,6-dioxopiperidine))-isoindole-1,3-dione))amino)butyl)-3-oxo-4-aza-5α-androst-1-ene-17β-carboxamide], the IC50 with PC-3 cells, in the experiment on VCaP cells and with 22Rv1 cells was greater than 1000 nM in each case.

As for `C[C@]12C=CC(=O)N[C@@H]1CC[C@@H]1[C@@H]2CC[C@]2(C)[C@@H](C(=O)NCCCCCNc3cccc4c3C(=O)N(C3CCC(=O)NC3=O)C4=O)CC[C@@H]12` (stereo partly drawn) [C7, N-(5-((4-(2-(3-(2,6-dioxopiperidine))-isoindole-1,3-dione))amino)pentyl)-3-oxo-4-aza-5α-androst-1-ene-17β-carboxamide], the IC50 in the experiment on PC-3 cells, with VCaP cells and in the experiment with 22Rv1 cells was greater than 1000 nM throughout.

As for `C[C@]12C=CC(=O)N[C@@H]1CC[C@@H]1[C@@H]2CC[C@]2(C)[C@@H](C(=O)NCCCCCNc3ccc4c(c3)C(=O)N(C3CCC(=O)NC3=O)C4=O)CC[C@@H]12` (stereo partly drawn) [C8, N-(5-((5-(2-(3-(2,6-dioxopiperidine))-isoindole-1,3-dione))amino)pentyl)-3-oxo-4-aza-5α-androst-1-ene-17β-carboxamide], the IC50 with PC-3 cells, in the experiment on VCaP cells and in the experiment on 22Rv1 cells was greater than 1000 nM each time.

With `C[C@]12C=CC(=O)N[C@@H]1CC[C@@H]1[C@@H]2CC[C@]2(C)[C@@H](C(=O)NCCCCCCNc3cccc4c3C(=O)N(C3CCC(=O)NC3=O)C4=O)CC[C@@H]12` (stereo partly drawn) [C9, N-(6-((4-(2-(3-(2,6-dioxopiperidine))-isoindole-1,3-dione))amino)hexyl)-3-oxo-4-aza-5α-androst-1-ene-17β-carboxamide], the IC50 in the experiment on PC-3 cells, in the experiment with VCaP cells and in the experiment on 22Rv1 cells was greater than 1000 nM in each case.

`C[C@]12C=CC(=O)N[C@@H]1CC[C@@H]1[C@@H]2CC[C@]2(C)[C@@H](C(=O)NCCCCCCNc3ccc4c(c3)C(=O)N(C3CCC(=O)NC3=O)C4=O)CC[C@@H]12` (stereo partly drawn) [C10, N-(6-((5-(2-(3-(2,6-dioxopiperidine))-isoindole-1,3-dione))amino)hexyl)-3-oxo-4-aza-5α-androst-1-ene-17β-carboxamide]: the IC50 in the experiment with PC-3 cells, in the experiment on VCaP cells and in the experiment with 22Rv1 cells was greater than 1000 nM throughout.

Regarding `C[C@]12C=CC(=O)N[C@@H]1CC[C@@H]1[C@@H]2CC[C@]2(C)[C@@H](C(=O)NCCCCCCCNc3cccc4c3C(=O)N(C3CCC(=O)NC3=O)C4=O)CC[C@@H]12` (stereo partly drawn) [C11, N-(7-((4-(2-(3-(2,6-dioxopiperidine))-isoindole-1,3-dione))amino)heptyl)-3-oxo-4-aza-5α-androst-1-ene-17β-carboxamide], the 50% inhibitory concentration (IC50) in the experiment on PC-3 cells, in the experiment with VCaP cells and in the experiment with 22Rv1 cells was greater than 1000 nM each time.

Consider `C[C@]12C=CC(=O)N[C@@H]1CC[C@@H]1[C@@H]2CC[C@]2(C)[C@@H](C(=O)NCCCCCCCNc3ccc4c(c3)C(=O)N(C3CCC(=O)NC3=O)C4=O)CC[C@@H]12` (stereo partly drawn) [C12, N-(7-((5-(2-(3-(2,6-dioxopiperidine))-isoindole-1,3-dione))amino)heptyl)-3-oxo-4-aza-5α-androst-1-ene-17β-carboxamide], for which the IC50 with PC-3 cells, in the experiment with VCaP cells and with 22Rv1 cells was greater than 1000 nM each time.

Regarding `C[C@]12C=CC(=O)N[C@@H]1CC[C@@H]1[C@@H]2CC[C@]2(C)[C@@H](C(=O)N3CCC(CN4CCN(c5cccc6c5C(=O)N(C5CCC(=O)NC5=O)C6=O)CC4)CC3)CC[C@@H]12` (stereo partly drawn) [C13, 1-(4-(2-(3-(2,6-dioxopiperidine))-isoindole-1,3-dione))-4-(4-(1-(3-oxo-4-aza-5α-androst-1-ene-17β-formyl)piperidine)methyl)-piperazine], the IC50 in the experiment on PC-3 cells, in the experiment on VCaP cells and with 22Rv1 cells was greater than 1000 nM throughout.

As to `C[C@]12C=CC(=O)N[C@@H]1CC[C@@H]1[C@@H]2CC[C@]2(C)[C@@H](C(=O)N3CCC(CN4CCN(c5ccc6c(c5)C(=O)N(C5CCC(=O)NC5=O)C6=O)CC4)CC3)CC[C@@H]12` (stereo partly drawn) [C14, 1-(5-(2-(3-(2,6-dioxopiperidine))-isoindole-1,3-dione))-4-(4-(1-(3-oxo-4-aza-5α-androst-1-ene-17β-formyl)piperidine)methyl)-piperazine], the IC50 in the experiment with PC-3 cells, in the experiment on VCaP cells and with 22Rv1 cells was greater than 1000 nM each time.

On to `C[C@]12C=CC(=O)N[C@@H]1CC[C@@H]1[C@@H]2CC[C@]2(C)[C@@H](C(=O)Nc3ccc(OCCNc4cccc5c4C(=O)N(C4CCC(=O)NC4=O)C5=O)cc3)CC[C@@H]12` (stereo partly drawn) [C15, N-(4-((2-((4-(2-(3-(2,6-dioxopiperidine))-isoindole-1,3-dione))amino)ethyl)oxy)phenyl)-3-oxo-4-aza-5α-androst-1-ene-17β-carboxamide], for which the IC50 was greater than 1000 nM in the experiment with PC-3 cells, 10 to 1000 nM in the experiment on VCaP cells and greater than 1000 nM with 22Rv1 cells.

(Values after patent publication US20250213701A1, “MEDICAMENT FOR TREATING HUMAN TUMOR BASED ON ERF3A-TARGETING PROTEOLYSIS MECHANISM” (SUZHOU DEGEN BIO-MEDICAL CO., LTD., priority 2022, published 2025).)
